What was measured:
[1] = test system: antibodies in sera from SARS patients (sera 1a, 1b, 2, 6, 37, 62, London, SARS-yellow, SARS-green); format: binding, human; parameters: Binding of serum 6 to linear peptides of protein X1 of SARS-CoV Urbani / Binding of serum 37 to linear peptides of protein X1 of SARS-CoV Urbani / Binding of serum 6 to looped/cyclic peptide (PEPSCAN-ELISA) / Binding of serum 37 to looped/cyclic peptide (PEPSCAN-ELISA) / Binding of serum 37 to looped/cyclic peptides of protein X1 of SARS-CoV Urbani / Binding of serum 6 to linear peptides of protein X2 / Binding of serum 37 to linear peptides of protein X2 / Binding of serum 37 to looped/cyclic peptides of protein X2 of SARS-CoV Urbani / Binding of serum 6 to linear peptides of protein M of SARS-CoV Urbani / Binding of serum 37 to linear peptides of protein M of SARS-CoV Urbani / Binding of serum 6 to looped/cyclic peptides of protein M of SARS-CoV Urbani / Binding of serum 37 to looped/cyclic peptides of protein M of SARS-CoV Urbani / Binding of serum 6 to linear peptides of protein X3 of SARS-CoV Urbani / Binding of serum 37 to linear peptides of protein X3 of SARS-CoV Urbani / Binding of serum 37 to looped/cyclic peptides of protein X3 of SARS-CoV Urbani / Binding of serum 6 to linear peptides of protein X4 of SARS-CoV Urbani / Binding of serum 37 to linear peptides of protein X4 of SARS-CoV Urbani / Binding of serum 37 to looped/cyclic peptides of protein X4 of SARS-CoV Urbani / Binding of serum 6 to linear peptides of protein X5 of SARS-CoV Urbani / Binding of serum 37 to linear peptides of protein X5 of SARS-CoV Urbani / Binding of serum 37 to looped/cyclic peptides of protein X5 of SARS-CoV Urbani / Binding of serum 6 to linear peptides of protein N of SARS-CoV Urbani / Binding of serum 37 to linear peptides of protein N of SARS-CoV Urbani / Binding of serum 6 to linear peptide (PEPSCAN-ELISA) / Binding of serum 1a to looped/cyclic peptides of protein N of SARS-CoV Urbani / Binding of serum 1b to looped/cyclic peptides of protein N of SARS-CoV Urbani / Binding of serum 2 to looped/cyclic peptides of protein N of SARS-CoV Urbani / Binding of serum 6 to looped/cyclic peptides of protein N of SARS-CoV Urbani / Binding of serum 37 to looped/cyclic peptides of protein N of SARS-CoV Urbani / Binding of serum 62 to looped/cyclic peptides of protein N of SARS-CoV Urbani / Binding of serum London to looped/cyclic peptides of protein N of SARS-CoV Urbani / Binding of serum SARS-green to looped/cyclic peptides of protein N of SARS-CoV Urbani: unit not given here
[2] = test system: rabbit serum obtained by immunizing a rabbit with the SARS-CoV strain Frankfurt 1; format: binding; parameters: Binding of a rabbit serum to linear peptides / Binding of a rabbit serum to looped peptides / Rabbit serum linear peptides / Rabbit serum looped peptides / Binding of a rabbit serum to linear peptides of protein N of SARS-CoV Urbani (Rabbit serum linear peptides) / Binding of a rabbit serum to looped/cyclic peptides of protein N of SARS-CoV Urbani (Rabbit serum looped peptides): unit not given here

Row | Sequence | Binding of serum 1a to linear peptides of protein X1 of SARS-CoV Urbani [1] | Binding of serum 1a to looped/cyclic peptide (PEPSCAN-ELISA) [1] | Binding of serum 1b to linear peptides of protein X1 of SARS-CoV Urbani [1] | Binding of serum 1b to looped/cyclic peptide (PEPSCAN-ELISA) [1] | Binding of serum 2 to linear peptides of protein X1 of SARS-CoV Urbani [1] | Binding of serum 2 to looped/cyclic peptide (PEPSCAN-ELISA) [1] | Binding of serum 6 to linear peptides of protein X1 of SARS-CoV Urbani [1] | Binding of serum 6 to looped/cyclic peptide (PEPSCAN-ELISA) [1] | Binding of serum 37 to linear peptides of protein X1 of SARS-CoV Urbani [1] | Binding of serum 37 to looped/cyclic peptide (PEPSCAN-ELISA) [1] | Binding of serum 62 to linear peptides of protein X1 of SARS-CoV Urbani [1] | Binding of serum 62 to looped/cyclic peptide (PEPSCAN-ELISA) [1] | Binding of serum London to linear peptides of protein X1 of SARS-CoV Urbani [1] | Binding of serum London to looped/cyclic peptide (PEPSCAN-ELISA) [1] | Binding of serum SARS-green to linear peptides of protein X1 of SARS-CoV Urbani [1] | Binding of serum SARS-green to looped/cyclic peptide (PEPSCAN-ELISA) [1] | Binding of serum SARS-yellow to linear peptides of protein X1 of SARS-CoV Urbani [1] | Binding of serum SARS-yellow to looped/cyclic peptide (PEPSCAN-ELISA) [1] | Recognition of the peptide by the rabbit serum [2] | Binding of a rabbit serum to linear peptides [2] | also measured
1 | RTLSYYKLGASQRVG |  |  |  |  |  |  |  |  |  |  |  |  |  |  |  |  |  |  |  |  | Binding of serum 1a to linear peptides of protein M of SARS-CoV Urbani [1]: 0.7; Binding of serum 1a to looped/cyclic peptides of protein M of SARS-CoV Urbani [1]: 0.8; Binding of serum 1b to linear peptides of protein M of SARS-CoV Urbani [1]: 0.6; Binding of serum 1b to looped/cyclic peptides of protein M of SARS-CoV Urbani [1]: 0.5; Binding of serum 2 to linear peptides of protein M of SARS-CoV Urbani [1]: 0.7; Binding of serum 2 to looped/cyclic peptides of protein M of SARS-CoV Urbani [1]: 0.7; Binding of serum 6 to linear peptides of protein M of SARS-CoV Urbani [1]: 0.8; Binding of serum 6 to looped/cyclic peptides of protein M of SARS-CoV Urbani [1]: 1.5; Binding of serum 37 to linear peptides of protein M of SARS-CoV Urbani [1]: 0.5; Binding of serum 62 to linear peptides of protein M of SARS-CoV Urbani [1]: 0.5; Binding of serum London to linear peptides of protein M of SARS-CoV Urbani [1]: 0.3; Binding of serum London to looped/cyclic peptides of protein M of SARS-CoV Urbani [1]: 1.0; Binding of serum SARS-green to linear peptides of protein M of SARS-CoV Urbani [1]: 0.5; Binding of serum SARS-green to looped/cyclic peptides of protein M of SARS-CoV Urbani [1]: 0.4; Binding of serum SARS-yellow to linear peptides of protein M of SARS-CoV Urbani [1]: 0.4; Binding of serum SARS-yellow to looped/cyclic peptides of protein M of SARS-CoV Urbani [1]: 0.8; Rabbit serum linear peptides [2]: 0.5; Rabbit serum looped peptides [2]: 1.0
2 | SATKIIALNKRWQLA | 0.8 | 1.2 | 0.6 | 0.8 | 0.6 | 1.2 | 0.7 | 0.9 | 0.7 | 1.0 | 0.8 | 1.5 | 0.4 | 0.5 | 0.3 | 1.0 | 0.5 | 0.9 | recognized |  | 
3 | TKIIALNKRWQLALY | 0.7 | 0.6 | 0.5 | 0.4 | 0.6 | 0.5 | 1.0 | 0.5 | 0.7 | 0.6 | 0.7 | 0.6 | 0.3 | 0.3 | 0.2 | 0.3 | 0.5 | 0.5 | recognized |  | 
4 | TTVYHITVSQIQLSL |  |  |  |  |  |  |  |  |  |  |  |  |  |  |  |  |  |  |  | 0.7 | Binding of serum 1a to linear peptides of protein X2 [1]: 0.7; Binding of serum 1a to looped/cyclic peptides of protein X2 of SARS-CoV Urbani [1]: 0.5; Binding of serum 1b to linear peptides of protein X2 [1]: 0.5; Binding of serum 1b to looped/cyclic peptides of protein X2 of SARS-CoV Urbani [1]: 0.5; Binding of serum 2 to linear peptides of protein X2 [1]: 0.5; Binding of serum 2 to looped/cyclic peptides of protein X2 of SARS-CoV Urbani [1]: 0.3; Binding of serum 6 to linear peptides of protein X2 [1]: 0.5; Binding of serum 6 to looped/cyclic peptides of protein X2 of SARS-CoV Urbani [1]: 0.3; Binding of serum 37 to linear peptides of protein X2 [1]: 0.7; Binding of serum 37 to looped/cyclic peptides of protein X2 of SARS-CoV Urbani [1]: 0.4; Binding of serum 62 to linear peptides of protein X2 [1]: 0.6; Binding of serum 62 to looped/cyclic peptides of protein X2 of SARS-CoV Urbani [1]: 0.5; Binding of serum London to linear peptides of protein X2 [1]: 0.4; Binding of serum London to looped/cyclic peptides of protein X2 of SARS-CoV Urbani [1]: 0.2; Binding of serum SARS-green to linear peptides of protein X2 [1]: 0.1; Binding of serum SARS-green to looped/cyclic peptides of protein X2 of SARS-CoV Urbani [1]: 0.2; Binding of serum SARS-yellow to linear peptides of protein X2 [1]: 0.8; Binding of serum SARS-yellow to looped/cyclic peptides of protein X2 of SARS-CoV Urbani [1]: 0.4; Binding of a rabbit serum to looped peptides [2]: 0.4
5 | VFQSATKIIALNKRW | 0.8 | 0.5 | 0.6 | 0.4 | 0.6 | 0.4 | 0.6 | 0.6 | 0.7 | 0.4 | 0.8 | 0.6 | 0.3 | 0.3 | 0.2 | 0.2 | 0.5 | 0.2 | recognized |  | 
6 | WQLALYKGFQFICNL | 0.6 | 0.6 | 0.2 | 0.3 | 0.4 | 0.4 | 0.5 | 1.3 | 0.3 | 0.5 | 0.4 | 0.5 | 0.2 | 1.5 | 0.3 | 0.3 | 0.4 | 0.5 |  | 0.5 | Binding of a rabbit serum to looped peptides [2]: 0.6

— patent US20070128217A1 (priority 2003, published 2007)
